One test has as its target LTC4S (Homo sapiens (Human), UniProt Q16873). Description: Human whole blood HTRF assay (LTC4 release after calcium ionophore A23187). Format: cell-based. The following applies: human whole blood HTRF IC50, human whole blood diluted 1:3, 4 h incubation, calcium ionophore A23187 stimulation, LTC4 by HTRF. As for the experimental part: B. Human Whole Blood HTRF Assay
LTC4 synthase catalyzes the conversion of Leukotriene A4 (LTA4) to Leukotriene C4 (LTC4) in the presence of reduced glutathione (GSH) as a co-substrate. For testing the inhibition of LTC4S, compounds are prepared for either eight-point or sixteen-point dose response studies in 384-well Labcyte low dead volume (LDV) plates. For eight-point dose response studies, compounds are diluted 1:5 starting at 1 μM concentration in 90% DMSO. […] Compounds are studied in duplicates. Ten wells are filled with 90% DMSO which correspond to the stimulated and unstimulated control wells. […] The morning of the assay, whole blood is collected from three human donors. Donors must be non-smokers and must not have taken NSAIDs within the 48 hours prior to blood collection. The amount of blood collected per donor depends on the amount of compounds to be tested and the dose response format in which they are to be studied (about 8 mL of whole blood for either 22 compounds in 8-point dose response format or 11 compounds in 16-point dose response format). […] 50 μL of diluted blood are then dispensed into each assay plate well with pre-dispensed compounds and DMSO for the stimulated and unstimulated controls using a Thermo Scientific™ Multidrop™ Combi reagent dispenser, and incubated at 37° C. for 4 hours. Calcium ionophore A23187 is used to induce a rapid increase in intracellular levels of Ca^2+. The Ca^2+ functions as a universal second messenger in various immune cells, such as T cells, B cells and mast cells, and is used to induce degranulation and release of eicosanoids, including LTC4, by cells contained in the whole blood samples. […] All but the unstimulated control wells are subsequently stimulated by dispensing 1 μL of the 0.5 mg/mL calcium ionophore suspension using the Thermo Scientific™ Multidrop™ Combi reagent dispenser. Plates are incubated for 15 minutes at 37° C. Plates are then centrifuged at 300 g for 10 minutes at room temperature to pellet blood cells and stop the reaction. […] Plates are sealed and stored at −80° C.
In order to measure the amount of LTC4 released by cells in the human blood samples during calcium ionophore stimulation, supernatants are analyzed using the Cisbio LTC4 homogeneous time-resolved FRET (HTRF) kit (Cisbio #64LC4PEH). […] Ten serially diluted standard curve solutions are also dispensed in duplicate into each plate as instructed in the protocol. Blank controls and cryptate control wells are also prepared. Then, 5 μL of anti-LTC4-d2 working solution are dispensed into all the wells, but the cryptate control wells. Subsequently, 5 μL of anti-LTC4-Eu3+ cryptate working solution are dispensed into all the wells. Plates are then covered with a lid and incubated at room temperature for one hour with gentle orbital shaking (˜450 rpm). […] HTRF ratios are calculated for each well by dividing the 665 nm intensity by the 620 nm intensity, and multiplying the resulting ratio by 10,000. LTC4 standard curves are interpolated for each plate and used to convert the HTRF ratio readouts into the amount of LTC4 present in each well (in ng/mL). Parametric curve fitting is used to obtain inhibition curves and IC50 values.
With `O=C1CCCC2(CCN(c3cc(OC4CCOCC4)n[nH]c3=O)CC2)N1c1ccc(F)c(F)c1` [Example 16, 1-(3,4-difluorophenyl)-9-(3-oxo-6-((tetrahydro-2H-pyran-4-yl)oxy)-2,3-dihydropyridazin-4-yl)-1,9-diazaspiro[5.5]undecan-2-one], the IC50 was determined as 0.016 µM.

Regarding `O=C1CCCC2(CCN(c3cc(=O)n(Cc4ccccc4)nc3OC3CCOCC3)CC2)N1c1ccc(F)c(F)c1` [Example 15b, 9-(1-benzyl-6-oxo-3-((tetrahydro-2H-pyran-4-yl)oxy)-1,6-dihydropyridazin-4-yl)-1-(3,4-difluorophenyl)-1,9-diazaspiro[5.5]undecan-2-one], the 50% inhibitory concentration (IC50) was 0.18 µM.

Still in this test, the particulars now being: human whole blood diluted 1:3, 4 h incubation, calcium ionophore A23187 stimulation, LTC4 by HTRF; read-out: human whole blood HTRF IC50.
`Nc1nc(O[C@H]2COC[C@H]2F)cc(N2CCC3(CCCC(=O)N3c3ccc(F)c(F)c3)CC2)n1` (racemic) [Example 105, rac-9-(2-amino-6-(((3S,4R)-4-fluorotetrahydrofuran-3-yl)oxy)pyrimidin-4-yl)-1-(3,4-difluorophenyl)-1,9-diazaspiro[5.5]undecan-2-one]: the concentration for half-maximal inhibition (IC50) was 0.006 µM.

As for `NC1(C(F)(F)F)CCN(c2ccnc(N3CCC4(CCCC(=O)N4c4ccc(F)c(F)c4)CC3)n2)CC1` [Example 39, 9-(4-(4-amino-4-(trifluoromethyl)piperidin-1-yl)pyrimidin-2-yl)-1-(3,4-difluorophenyl)-1,9-diazaspiro[5.5]undecan-2-one], the 50% inhibitory concentration (IC50) is 0.004 µM.

`Nc1nc(O[C@@H]2CCCOC2)cc(N2CCC3(CCCC(=O)N3c3ccc(F)c(F)c3)CC2)n1` [Example 100, (R)-9-(2-amino-6-((tetrahydro-2H-pyran-3-yl)oxy)pyrimidin-4-yl)-1-(3,4-difluorophenyl)-1,9-diazaspiro[5.5]undecan-2-one]: the half-inhibitory concentration (IC50) came to 0.002 µM.

`CC1(Oc2cc(N3CCC4(CCCC(=O)N4c4ccc(F)c(F)c4)CC3)nc(N)n2)CCOC1` (racemic) [Example 104, rac-9-(2-amino-6-((3-methyltetrahydrofuran-3-yl)oxy)pyrimidin-4-yl)-1-(3,4-difluorophenyl)-1,9-diazaspiro[5.5]undecan-2-one]: the concentration for half-maximal inhibition (IC50) was found to be 0.005 µM.

For the molecule `O=C1CCCC2(CCN(c3cc(-n4cncn4)ncn3)CC2)N1c1ccc(F)c(F)c1` [Example 54, 9-(6-(1H-1,2,4-triazol-1-yl)pyrimidin-4-yl)-1-(3,4-difluorophenyl)-1,9-diazaspiro[5.5]undecan-2-one], the IC50 came out at 0.3 µM.

As to `O=C1CCCC2(CCN(c3cc(-n4cccn4)nc(C(F)(F)F)n3)CC2)N1c1ccc(F)c(F)c1` [Example 51, 9-(6-(1H-pyrazol-1-yl)-2-(trifluoromethyl)pyrimidin-4-yl)-1-(3,4-difluorophenyl)-1,9-diazaspiro[5.5]undecan-2-one], the concentration for half-maximal inhibition (IC50) was determined as 0.07 µM.

For the molecule `CC(C)Oc1cc(N2CCC3(CCCC(=O)N3c3ccc(F)c(F)c3)CC2)nc(N)n1` [Example 93, 9-(2-amino-6-isopropoxypyrirnidin-4-yl)-1-(3,4-difluorophenyl)-1,9-diazaspiro[5.5]undecan-2-one], the half-inhibitory concentration (IC50) is 0.01 µM.

Take `Nc1nc(N2CCC3(CCCC(=O)N3c3ccc(F)c(F)c3)CC2)cc(N2C[C@H]3C[C@@H]2CO3)n1` (racemic) [Example 46, rac-9-(2-amino-6-((1R,4R)-2-oxa-5-azabicyclo[2.2.1]heptan-5-yl)pyrimidin-4-yl)-1-(3,4-difluorophenyl)-1,9-diazaspiro[5.5]undecan-2-one]: the IC50 was 0.49 µM.

Consider `O=C1CCCC2(CCN(c3cc(-n4cc(F)cn4)ncn3)CC2)N1c1ccc(F)c(F)c1` [Example 56, 9-(6-(4-fluoro-1H-pyrazol-1-yl)pyrimidin-4-yl)-1-(3,4-difluorophenyl)-1,9-diazaspiro[5.5]undecan-2-one], for which the concentration for half-maximal inhibition (IC50) amounted to 0.017 µM.

On to `O=C1CCCC2(CCN(c3cc(-n4cc(C(F)(F)F)cn4)ncn3)CC2)N1c1ccc(F)c(F)c1` [Example 47, 1-(3,4-difluorophenyl)-9-(6-(4-(trifluoromethyl)-1H-pyrazol-1-yl)pyrimidin-4-yl)-1,9-diazaspiro[5.5]undecan-2-one], for which the half-maximal inhibitory concentration (IC50) was found to be 0.007 µM.

On to `O=C1CCCC2(CCN(c3cc(O[C@@H]4COC[C@H]4F)nc(CO)n3)CC2)N1c1ccc(F)c(F)c1` (racemic) [Example 108, rac-1-(3,4-diflurophenyl)-9-(6-(((3R,4R)-4-fluorotetrahydrofuran-3-yl)oxy)-2-(hydroxymethyl)pyrimidin-4-yl)-1,9-diazaspiro[5.5]undecan-2-one], for which the IC50 was 0.022 µM.

In the case of “(R)-9-(2-amino-6-((1,1,1-trifluoropropan-2-yl)oxy)pyrimidin-4-yl)-1-(3,4-difluorophenyl)-3-oxa-1,9-diazaspiro[5.5]undecan-2-one, or (S)-9-(2-amino-6-((1,1,1-trifluoropropan-2-yl)oxy)pyrimidin-4-yl)-1-(3,4-difluorophenyl)-3-oxa-1,9-diazaspiro[5.5]undecan-2-one [Example 113a]”, the IC50 is 0.015 µM.

Take `O=C1CCCC2(CCN(c3cc(-n4cc(F)cn4)nc(N4CCOCC4)n3)CC2)N1c1ccc(F)c(F)c1` [Example 73, 1-(3,4-difluorophenyl)-9-(6-(4-fluoro-1H-pyrazol-1-yl)-2-morpholinopyrimidin-4-yl)-1,9-diazaspiro[5.5]undecan-2-one]: the concentration for half-maximal inhibition (IC50) stood at 0.068 µM.

As for `O=C1CCCC2(CCN(c3cc(O[C@H]4CCOC4)nc(CO)n3)CC2)N1c1ccc(F)c(F)c1` [Example 109, (S)-1-(3,4-difluorophenyl)-9-(2-(hydroxymethyl)-6-((tetrahydrofuran-3-yl)oxy)pyrimidin-4-yl)-1,9-diazaspiro[5.5]undecan-2-one], the concentration for half-maximal inhibition (IC50) was 0.015 µM.

With `CC(Oc1cc(N2CCC3(CCCC(=O)N3c3ccc(F)c(F)c3)CC2)nc(N)n1)C(F)(F)F` (racemic) [Example 95, rac-9-(2-amino-6-((1,1,1-trifluoropropan-2-yl)oxy)pyrimidn-4-yl)-1-(3,4-difluorophienyl)-1,9-diazaspiro[5.5]undecan-2-one], the IC50 was found to be 0.002 µM.

For `[2H]C([2H])(Oc1cc(N2CCC3(CCCC(=O)N3c3ccc(F)c(F)c3)CC2)nc(N)n1)C(F)(F)F` [Example 92, 9-(2-amino-6-(2,2,2-trifluoroethoxy-1,1-d2)pyrimidin-4-yl)-1-(3,4-difluorophenyl)-1,9-diazaspiro[5.5]undecan-2-one], the IC50 came to 0.005 µM.

As for `Nc1nc(-c2ccc(F)cc2)cc(N2CCC3(CCCC(=O)N3c3ccc(F)c(F)c3)CC2)n1` [Example 75], the IC50 is 0.004 µM.

Consider `N#Cc1nc(N2CCC3(CCCC(=O)N3c3ccc(F)c(F)c3)CC2)cc(-n2cccn2)n1` [Example 49, 4-(1-(3,4-difluorophenyl)-2-oxo-1,9-diazaspiro[5.5]undecan-9-yl)-6-(1H-pyrazol-1-yl)pyrimidine-2-carbonitrile], for which the IC50 came out at 0.088 µM.

For `O=C1CCCC2(CCN(c3cc(Oc4cccc(Cl)c4)cc[n+]3[O-])CC2)N1c1ccc(F)c(F)c1` [Example 34, 4-(3-chlorophenoxy)-2-(1-(3,4-difluorophenyl)-2-oxo-1,9-diazaspiro[5.5]undecan-9-yl)pyridine 1-oxide], the IC50 is 0.002 µM.

With `Nc1nc(O[C@@H]2COC[C@H]2F)cc(N2CCC3(CCCC(=O)N3c3ccc(F)c(F)c3)CC2)n1` (racemic) [Example 102, rac-9-(2-amino-6-(((3R,4R)-4-fluorotetrahydrofuran-3-yl)oxy)pyrimidin-4-yl)-1-(3,4-difluorophenyl)-1,9-diazaspiro[5.5]undecan-2-one], the IC50 is 0.009 µM.

For `Nc1nc(OCC(F)(F)C(F)(F)F)cc(N2CCC3(CCCC(=O)N3c3ccc(F)c(F)c3)CC2)n1` [Example 97], the IC50 turned out to be 0.003 µM.

`COc1nc(N2CCC3(CCCC(=O)N3c3ccc(F)c(F)c3)CC2)cc(-n2cccn2)n1` [Example 50, 1-(3,4-difluorophenyl)-9-(2-methoxy-6-(1H-pyrazol-1-yl)pyrimidin-4-yl)-1,9-diazaspiro[5.5]undecan-2-one]: the IC50 came to 0.045 µM.

In the case of `O=C1CCCC2(CCN(c3cc(OC4COC4)nc(C(F)(F)F)n3)CC2)N1c1ccc(F)c(F)c1` [Example 61, 1-(3,4-difluorophenyl)-9-(6-(oxetan-3-yloxy)-2-(trifluoromethyl)pyrimidin-4-yl)-1,9-diazaspiro[5.5]undecan-2-one], the IC50 worked out at 0.029 µM.
